Source: PubChem BioAssay (NCI)
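The concentration for 50% growth inhibition is given as GI50. TGI denotes the concentration required for complete inhibition of growth.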

Assays:
Experiment in all cases: NCI tumour cell line growth inhibition, 384-well format
[1] = tested on: MALME-3M melanoma
[2] = tested on: BT-549 breast
[3] = tested on: TK-10 renal
[4] = tested on: KM12 colon
[5] = tested on: HCT-116 colon
[6] = tested on: HS 578T breast
[7] = tested on: SK-MEL-2 melanoma
[8] = tested on: NCI/ADR-RES ovarian
[9] = tested on: OVCAR-3 ovarian
[10] = tested on: UACC-62 melanoma
[11] = tested on: A549 NSCLC
[12] = tested on: HOP-62 NSCLC
[13] = tested on: RPMI-8226 leukemia
[14] = tested on: HCT-15 colon
[15] = tested on: M14 melanoma
[16] = tested on: LOX IMVI melanoma
[17] = tested on: MDA-MB-435 melanoma
[18] = tested on: SN12C renal
[19] = tested on: RXF 393 renal
[20] = tested on: NCI-H23 lung
[21] = tested on: U251 glioblastoma
[22] = tested on: DU-145 prostate
[23] = tested on: MDA-MB-468 breast
[24] = tested on: SF-539 CNS
[25] = tested on: SNB-19 CNS
[26] = tested on: SK-MEL-28 melanoma
[27] = tested on: UO-31 renal
[28] = tested on: IGROV1 ovarian
[29] = tested on: OVCAR-8 ovarian
[30] = tested on: NCI-H322M lung
[31] = tested on: SK-OV-3 ovarian
[32] = tested on: EKVX NSCLC
[33] = tested on: HOP-92 NSCLC
[34] = tested on: CAKI-1 renal
[35] = tested on: PC-3 prostate
[36] = tested on: A498 renal
[37] = tested on: ACHN renal
[38] = tested on: MOLT-4 leukemia
[39] = tested on: SF-295 CNS
[40] = tested on: SNB-75 CNS
[41] = tested on: HT29 colon
[42] = tested on: SW-620 colon
[43] = tested on: MCF7 breast
[44] = tested on: NCI-H522 lung
[45] = tested on: CCRF-CEM leukemia
[46] = tested on: UACC-257 melanoma
[47] = tested on: MDA-MB-231 breast
[48] = tested on: T-47D breast
[49] = tested on: K-562 leukemia
[50] = tested on: SF-268 CNS
[51] = tested on: HL-60(TB) leukemia
[52] = tested on: 786-0 renal
[53] = tested on: NCI-H226 lung
[54] = tested on: OVCAR-5 ovarian
[55] = tested on: OVCAR-4 ovarian

SMILES: C1CN1c1nc(N2CC2)nc(N2CC2)n1
- GI50 [1]: 4.87 µM
- TGI [1]: 18.6 µM
- GI50 [2]: 2.16 µM
- TGI [2]: 11.5 µM
- GI50 [3]: 14.3 µM
- TGI [3]: 35 µM
- GI50 [4]: 2.47 µM
- TGI [4]: 54.9 µM
- GI50 [5]: 1.61 µM
- TGI [5]: 16.6 µM
- GI50 [6]: 11.6 µM
- TGI [6]: 24 µM
- GI50 [7]: 8.35 µM
- TGI [7]: 18.8 µM
- GI50 [8]: 3.02 µM
- TGI [8]: 15.1 µM
- GI50 [9]: 3.13 µM
- TGI [9]: 14.5 µM
- GI50 [10]: 1.34 µM
- TGI [10]: 11.6 µM
- GI50 [11]: 3.42 µM
- TGI [11]: 19.5 µM
- GI50 [12]: 0.589 µM
- TGI [12]: 2.75 µM
- GI50 [13]: 0.736 µM
- TGI [13]: 3.11 µM
- GI50 [14]: 2.34 µM
- TGI [14]: 14.1 µM
- GI50 [15]: 1.74 µM
- TGI [15]: 10.5 µM
- GI50 [16]: 2.25 µM
- TGI [16]: 14.8 µM
- GI50 [17]: 10.8 µM
- TGI [17]: 23.1 µM
- GI50 [18]: 1.21 µM
- TGI [18]: 10.3 µM
- GI50 [19]: 3.11 µM
- TGI [19]: 13.1 µM
- GI50 [20]: 1.22 µM
- TGI [20]: 4.3 µM
- GI50 [21]: 1.42 µM
- TGI [21]: 13.3 µM
- GI50 [22]: 1.04 µM
- TGI [22]: 5.94 µM
- GI50 [23]: 0.139 µM
- TGI [23]: 0.586 µM
- GI50 [24]: 1.46 µM
- TGI [24]: 4.3 µM
- GI50 [25]: 3.73 µM
- TGI [25]: 18.1 µM
- GI50 [26]: 10.3 µM
- TGI [26]: 22.1 µM
- GI50 [27]: 5.17 µM
- TGI [27]: 17.9 µM
- GI50 [28]: 10.8 µM
- TGI [28]: 22.9 µM
- GI50 [29]: 1.39 µM
- TGI [29]: 15.9 µM
- GI50 [30]: 13.3 µM
- TGI [30]: 27.9 µM
- GI50 [31]: 2.76 µM
- TGI [31]: 12.2 µM
- GI50 [32]: 15.5 µM
- TGI [32]: 31 µM
- GI50 [33]: 6.61 µM
- TGI [33]: 58.6 µM
- GI50 [34]: 1.46 µM
- TGI [34]: 14.2 µM
- GI50 [35]: 10.7 µM
- TGI [35]: 23.4 µM
- GI50 [36]: 3.36 µM
- TGI [36]: 18.6 µM
- GI50 [37]: 1.55 µM
- TGI [37]: 4.03 µM
- GI50 [38]: 0.0877 µM
- TGI [38]: 0.21 µM
- GI50 [39]: 1.08 µM
- TGI [39]: 2.84 µM
- GI50 [40]: 1.67 µM
- TGI [40]: 10.3 µM
- GI50 [41]: 2.75 µM
- TGI [41]: 15.3 µM
- GI50 [42]: 2.84 µM
- TGI [42]: 20 µM
- GI50 [43]: 1.51 µM
- TGI [43]: 18 µM
- GI50 [44]: 1.36 µM
- TGI [44]: 2.87 µM
- GI50 [45]: 0.449 µM
- TGI [45]: 1.35 µM
- GI50 [46]: 12.5 µM
- TGI [46]: 25.2 µM
- GI50 [47]: 11.7 µM
- TGI [47]: 25.2 µM
- GI50 [48]: 5.49 µM
- TGI [48]: 22.7 µM
- GI50 [49]: 3.96 µM
- TGI [49]: 17.4 µM
- GI50 [50]: 0.68 µM
- TGI [50]: 10.2 µM
- GI50 [51]: 0.144 µM
- TGI [51]: 0.3 µM
- GI50 [52]: 2.59 µM
- TGI [52]: 11.9 µM
- GI50 [53]: 4.42 µM
- TGI [53]: 19.9 µM
- GI50 [54]: 5.96 µM
- TGI [54]: 22 µM
- GI50 [55]: 14.7 µM
- TGI [55]: 29 µM
